Measurements as given in patent US20040204487A1, “Novel medicinal product” (priority 2002, published 2004).
Entries after “also recorded” stand apart in the source; their conditions may differ.

Key:
3T3-F442A cells [1] = experiment: Triacylglyceride accumulation in differentiating 3T3-F442A pre-adipocytes; format: cell-based, murine; conditions: for Triacylglycerides (μg/mg protein): 10 μM from confluency, control (no treatment) 0.16; for Triacylglycerides (μg/mg protein) / concentration of TAGs in the adipocytes, % relative to the control / inhibition of cell differentiation (in words): 7 days; for concentration of TAGs in the adipocytes, % relative to the control: control 100% (FIG. 2); for inhibition of cell differentiation (in words): 10 μM
Procedure: The pre-adipocyte lines 3T3-F442A (commercial line) and BFC 115 (from Claude Forest INSERM, St. Pères Paris V) are cultured until confluency in Dulbecco's modified Eagle medium (DMEM) (Gibco) in the presence of 5% of newborn calf serum and 5% of fetal calf serum (Gibco).
From confluency, the cells are cultured in a differentiating medium (DMEM with 10% of fetal calf serum and 20 nM of insulin) in the presence or absence of the metabolites to be tested.
The medium is renewed every two or three days.
The differentiation of the cells is evaluated either by morphological criteria (very rounded cells having accumulated large lipid vacuoles) or by measuring the average amount of triglycerides per cell (ratio of the amount of triglyceride per dish to the amount of protein per dish). Under standard culture conditions, in 8 days, 90% of the pre-adipocytes have differentiated to adipocytes.
The cells are washed with PBS phosphate buffer (Sigma), recovered from the bottom of the Petri dish by scraping with a spatula, fragmented by ultrasound (2 seconds) and then centrifuged at 10000 g for 20 minutes.
The centrifugation supernatant is removed for triacylglyceride (TAG) analysis.
To determine the average amount of triglycerides per cell at the end of the abovementioned experiments, an automated enzymatic colorimetric test (Roche method) which is based on the studies of Wahlefeld (Wahlefeld and Bergmeyer (eds). Methods of Enzymatic Analysis. 2 second edition. New York Academic Press Inc. 1974: 1831) was used as assaying method.
The 3T3-F442A pre-adipocyte cells were treated from confluency with 12(R)-HETE (10 μM), 12(S)-HETE (10 μM), 11,12-EET (10 μM) and with Δ 15-deoxy prostaglandin J2 (10 μM, Δ 15-deoxyPGJ2) in the presence or absence of 10 μM of 12(R)-HETE. The cell differentiation was evaluated after 7 days by measuring, as indicated above, the amount of triacylglycerides accumulated per mg of protein.
To do this, 3T3-F442A fibroblasts, or pre-adipocyte cells, were treated from confluency with various concentrations of 12(R)-HETE. The cell differentiation was evaluated after 7 days by measuring the amount of triacylglycerides (TAGs) accumulated per mg of protein (prot).

[2] = test system: pre-adipocyte fibroblasts; conditions: cited from earlier work
[3] = test system: cells from human adipose tissue; experiment: Triglyceride accumulation in cells from human adipose tissue; format: cell-based; conditions: 10 μM, pro-differentiating medium, three experiments
Text: In addition, cells originating from human fat tissues subsequent to surgical interventions requiring their removal were used. The removed tissues are collected on a bed of ice and immediately treated in the laboratory. The cell culture consists of a mixture of pre-adipocyte cells and adipocyte cells already differentiated.

[4] = test system: differentiated 3T3-F442A cells; experiment: Residual level of metabolite in culture medium of differentiated cells (LC-MS); format: in vitro ADME, murine; conditions: 10 μM
Procedure: It was also determined that the residual level of 12(R)-HETE, present at a concentration of 10 μM in the culture medium of the differentiated 3T3-F442A cells, is respectively 85% and 2.3% after 6 h and 18 h of incubation.
The residual amounts of 12(R)-HETE were analyzed by LC-MS.

3T3-F442A cells [5] = experiment: Direct morphological examination of differentiation of fibroblasts to adipocytes; format: cell-based, murine
Procedure: The differentiation of the cells is evaluated either by morphological criteria (very rounded cells having accumulated large lipid vacuoles) or by measuring the average amount of triglycerides per cell (ratio of the amount of triglyceride per dish to the amount of protein per dish). Under standard culture conditions, in 8 days, 90% of the pre-adipocytes have differentiated to adipocytes. To show by direct morphological examination the differentiation of the fibroblasts to adipocytes in the presence or absence of the metabolites 12-HETE and/or 11,12-EET, the following procedure was carried out. The 3T3-F442A cells are treated, from confluency, with these metabolites. The treatment was renewed every 2 or 3 days throughout the entire differentiation process. The level of differentiation of the cells was evaluated by observation under a photon microscope with a 200 times magnification (see the photos shown in figures FIG. 1A, FIG. 1A1, FIG. 1B and FIG. 1B1).

[6] = Cellular toxicity markers after 8 days of treatment; format: cell-based; conditions: 30 μM
Procedure: The possible toxicity of the metabolites selected in accordance with the invention was also studied.
For this purpose, several cellular toxicity markers were measured after 8 days of treatment, namely
the LDH (lactate dehydrogenase) activity in the culture medium, a control for membrane permeabilization,
fragmentation of the nucleus by “Hoechst” staining, which is a marker for apoptosis and which is described in Leukemia, 15, 1572-81. Plenchette, S., Moutet M., Benguella M., N'Gondara J. P., Guigner F., Coffe C., Corcos L., Bettaieb A. and Solary E. (2001).

[7] = test system: BFC-115 pre-adipocyte cells; experiment: Triacylglyceride accumulation in differentiating BFC-115 pre-adipocytes; format: cell-based, murine; conditions: 7 days; for Amount of TAG in μg/mg of protein: control 0.45; for inhibition of the differentiation of the pre-adipocytes: 10 μM
Procedure: The pre-adipocyte lines 3T3-F442A (commercial line) and BFC 115 (from Claude Forest INSERM, St. Pères Paris V) are cultured until confluency in Dulbecco's modified Eagle medium (DMEM) (Gibco) in the presence of 5% of newborn calf serum and 5% of fetal calf serum (Gibco). From confluency, the cells are cultured in a differentiating medium (DMEM with 10% of fetal calf serum and 20 nM of insulin) in the presence or absence of the metabolites to be tested. The medium is renewed every two or three days. The differentiation of the cells is evaluated either by morphological criteria (very rounded cells having accumulated large lipid vacuoles) or by measuring the average amount of triglycerides per cell (ratio of the amount of triglyceride per dish to the amount of protein per dish). Under standard culture conditions, in 8 days, 90% of the pre-adipocytes have differentiated to adipocytes. […] The BFC-115 pre-adipocyte cells were treated from confluency with 12(R)-HETE (10 μM), 12(S)-HETE (10 μM), 11,12-EET (10 μM) and with arachidonic acid AA (100 μM). The cell differentiation was evaluated after 7 days by measuring the amount of triacylglycerides accumulated per mg of protein.

SMILES	Triacylglycerides (μg/mg protein) (3T3-F442A cells [1])	inhibition of the accumulation of triglycerides [3] [%]	inhibition of cell differentiation (in words) (3T3-F442A cells [1])	Amount of TAG in μg/mg of protein ([7]; 10 μM from confluency)	inhibition of the differentiation of the pre-adipocytes [7]	further results
CCCCC/C=C/C=C1/C(=O)C=C[C@@H]1C/C=C\CCCC(=O)O [15-deoxyPGJ2, 15-deoxy-Δ^12,14-prostaglandin J2, reference compound]	0.52					concentrations at which differentiation is accelerated [2]: 10^−5 to 10^−6 M
CCCCC/C=C\C[C@@H](O)/C=C/C=C\C/C=C\CCCC(=O)O [12(R)-HETE, 12-hydroxyeicosatetraenoic acid]	0.04	50	greatly inhibit the cell differentiation; also recorded: greater than that of 12(S)-HETE	=0.17 μg/mg of protein	approximately 40%	penetration into the cells (conclusion from residual level) [4]: clearly penetrates into the cells; residual level in the culture medium ([4]; after 6 h of incubation): 85%; residual level in the culture medium ([4]; after 18 h of incubation): 2.3%; concentration of TAGs in the adipocytes, % relative to the control (3T3-F442A cells [1]; 5 μM): approximately 85%; inhibition of the differentiation induced by Δ 15-deoxyprostaglandin J2 (3T3-F442A cells [1]; 10 μM 12(R)-HETE with 10 μM 15-deoxyPGJ2, 7 days): approximately 40%; concentration of TAGs in the adipocytes, % relative to the control (3T3-F442A cells [1]; 30 μM): approximately 25%; cell morphology under photon microscope (3T3-F442A cells [5]; 10 μM, 7 days, with or without 100 μM arachidonic acid (FIG. 1A1, 1B1)): spindle-shaped with very few lipid globules; cellular toxicity markers (number of cells, cell morphology, LDH activity in medium, fragmentation of the nucleus by Hoechst staining) [6]: None of these markers responds positively
CCCCC/C=C\C[C@@H](O)/C=C/C=C\C/C=C\CCCC(=O)O [12(S)-HETE, 12-hydroxyeicosatetraenoic acid]	0.07		greatly inhibit the cell differentiation	=0.28 μg/mg of protein	approximately 40%	
CCCCC/C=C\C/C=C\C/C=C\C/C=C\CCCC(=O)O [AA, arachidonic acid, reference compound]						cell morphology under photon microscope (3T3-F442A cells [5]; 100 μM from confluency (FIG. 1B)): increases the amount of cells differentiated into adipocytes; Amount of TAG in μg/mg of protein ([7]; 100 μM from confluency): =0.55 μg/mg of protein; effect on differentiation (in words) ([7]; 100 μM): clearly promotes the differentiation
CCCCC/C=C\CC1OC1C/C=C\C/C=C\CCCC(=O)O (stereo not drawn) [11,12-EET, 11,12-epoxyeicosatrienoic acid]	0.08	50	greatly inhibit the cell differentiation	=0.22 μg/mg of protein	approximately 40%	
